ChEMBL document CHEMBL4002566, “S-substituted 3,5-dinitrophenyl 1,3,4-oxadiazole-2-thiols and tetrazole-5-thiols as highly efficient antitubercular agents” (Eur J Med Chem, 2017)

How the values were obtained:
Klebsiella pneumoniae [1] = experiment: Antibacterial activity against Klebsiella pneumoniae HK11750/08 after 24 hrs by broth microdilution method; format: functional; settings: HK11750/08, 24 h
Pichia kudriavzevii [2] = experiment: Antifungal activity against Candida krusei E28 after 24 hrs by broth microdilution method; format: functional; settings: E28, 24 h
Lichtheimia corymbifera [3] = experiment: Antifungal activity against Absidia corymbifera 272 after 48 hrs by broth microdilution method; format: functional; settings: Lichtheimia corymbifera, 272, 48 h
[4] = tested on: Trichophyton mentagrophytes; experiment: Antifungal activity against Trichophyton mentagrophytes 445 after 72 hrs by broth microdilution method; format: functional; settings: Trichophyton mentagrophytes, 445, 72 h
Lichtheimia corymbifera [5] = experiment: Antifungal activity against Absidia corymbifera 272 after 24 hrs by broth microdilution method; format: functional; settings: Lichtheimia corymbifera, 272, 24 h
A-431 = experiment: Cytotoxicity against human A431 cells assessed as cell viability after 48 hrs by MTS assay; format: cell-based; settings: A-431, 48 h
[6] = Cytotoxicity against human HuH7 cells assessed as cell viability at 30 uM after 48 hrs by MTS assay relative to control; format: cell-based, Huh-7; settings: read-out: Activity
[7] = tested on: Trichophyton mentagrophytes; experiment: Antifungal activity against Trichophyton mentagrophytes 445 after 120 hrs by broth microdilution method; format: functional; settings: Trichophyton mentagrophytes, 445, 120 h
Enterococcus sp. [8] = experiment: Antibacterial activity against Enterococcus sp. HK14365/08 after 48 hrs by broth microdilution method; format: functional; settings: HK14365/08, 48 h
Staphylococcus aureus [9] = experiment: Antibacterial activity against methicillin-resistant Staphylococcus aureus HK5996/08 after 24 hrs by broth microdilution method; format: functional; settings: HK5996/08, 24 h
Escherichia coli [10] = experiment: Antibacterial activity against Escherichia coli ATCC 8739 after 24 hrs by broth microdilution method; format: functional; settings: ATCC 8739, 24 h
Escherichia coli [11] = experiment: Antibacterial activity against Escherichia coli ATCC 8739 after 48 hrs by broth microdilution method; format: functional; settings: ATCC 8739, 48 h
Mycobacterium kansasii [12] = experiment: Antimycobacterial activity against Mycobacterium kansasii 6509/96 clinical isolate after 21 days by micromethod; format: functional; settings: 6509/96, 504 h
Enterococcus sp. [13] = experiment: Antibacterial activity against Enterococcus sp. HK14365/08 after 24 hrs by broth microdilution method; format: functional; settings: HK14365/08, 24 h
Trichosporon asahii [14] = experiment: Antifungal activity against Trichosporon asahii 1188 after 24 hrs by broth microdilution method; format: functional; settings: Trichosporon asahii, 1188, 24 h
Candida albicans [15] = experiment: Antifungal activity against Candida albicans ATCC 44859 after 24 hrs by broth microdilution method; format: functional; settings: ATCC 44859, 24 h
Mycobacterium kansasii [16] = experiment: Antimycobacterial activity against Mycobacterium kansasii CNCTC My 235/80 after 7 days by micromethod; format: functional; settings: CNCTC My 235/80, 168 h
Klebsiella pneumoniae [17] = experiment: Antibacterial activity against extended spectrum beta-lactamase producing Klebsiella pneumoniae HK14368/08 after 48 hrs by broth microdilution method; format: functional; settings: HK14368/08, 48 h
Candida tropicalis [18] = experiment: Antifungal activity against Candida tropicalis 156 after 24 hrs by broth microdilution method; format: functional; settings: Candida tropicalis, 156, 24 h
Mycobacterium kansasii [19] = experiment: Antimycobacterial activity against Mycobacterium kansasii 6509/96 clinical isolate after 7 days by micromethod; format: functional; settings: 6509/96, 168 h
HepG2 = experiment: Cytotoxicity against human HepG2 cells assessed as cell viability after 48 hrs by MTS assay; format: cell-based; settings: HepG2, 48 h
[20] = Cytotoxicity against MDCK cells assessed as cell viability at 30 uM after 48 hrs by MTS assay relative to control; format: cell-based, Canis lupus familiaris; settings: dog, read-out: Activity
Nakaseomyces glabratus [21] = experiment: Antifungal activity against Candida glabrata 20/I after 48 hrs by broth microdilution method; format: functional
Trichosporon asahii [22] = experiment: Antifungal activity against Trichosporon asahii 1188 after 48 hrs by broth microdilution method; format: functional; settings: Trichosporon asahii, 1188, 48 h
Klebsiella pneumoniae [23] = experiment: Antibacterial activity against extended spectrum beta-lactamase producing Klebsiella pneumoniae HK14368/08 after 24 hrs by broth microdilution method; format: functional; settings: HK14368/08, 24 h
Candida albicans [24] = experiment: Antifungal activity against Candida albicans ATCC 44859 after 48 hrs by broth microdilution method; format: functional; settings: ATCC 44859, 48 h
Mycobacterium kansasii [25] = experiment: Antimycobacterial activity against Mycobacterium kansasii CNCTC My 235/80 after 21 days by micromethod; format: functional; settings: CNCTC My 235/80, 504 h
Pseudomonas aeruginosa [26] = experiment: Antibacterial activity against Pseudomonas aeruginosa ATCC 9027 after 24 hrs by broth microdilution method; format: functional; settings: ATCC 9027, 24 h
Staphylococcus aureus [27] = experiment: Antibacterial activity against methicillin-resistant Staphylococcus aureus HK5996/08 after 48 hrs by broth microdilution method; format: functional; settings: HK5996/08, 48 h
MDCK = experiment: Cytotoxicity against MDCK cells assessed as cell viability after 48 hrs by MTS assay; format: cell-based; settings: Canis lupus familiaris
Aspergillus fumigatus [28] = experiment: Antifungal activity against Aspergillus fumigatus 231 after 48 hrs by broth microdilution method; format: functional; settings: Aspergillus fumigatus, 231, 48 h
Mycobacterium kansasii [29] = experiment: Antimycobacterial activity against Mycobacterium kansasii CNCTC My 235/80 after 14 days by micromethod; format: functional; settings: CNCTC My 235/80, 336 h
Nakaseomyces glabratus [30] = experiment: Antifungal activity against Candida glabrata 20/I after 24 hrs by broth microdilution method; format: functional
Huh-7 = experiment: Cytotoxicity against human HuH7 cells assessed as cell viability after 48 hrs by MTS assay; format: cell-based; settings: Huh-7, 48 h
Candida tropicalis [31] = experiment: Antifungal activity against Candida tropicalis 156 after 48 hrs by broth microdilution method; format: functional; settings: Candida tropicalis, 156, 48 h
Mycobacterium avium [32] = experiment: Antimycobacterial activity against Mycobacterium avium CNCTC My 330/88 after 14 days by micromethod; format: functional; settings: CNCTC My 330/88, 336 h
Pseudomonas aeruginosa [33] = experiment: Antibacterial activity against Pseudomonas aeruginosa ATCC 9027 after 48 hrs by broth microdilution method; format: functional; settings: ATCC 9027, 48 h
[34] = tested on: Mycobacterium tuberculosis; experiment: Antimycobacterial activity against Mycobacterium tuberculosis CNCTC My 331/88 after 21 days by micromethod; format: functional; settings: CNCTC My 331/88, 504 h
Staphylococcus aureus [35] = experiment: Antibacterial activity against Staphylococcus aureus ATCC 6538 after 24 hrs by broth microdilution method; format: functional; settings: ATCC 6538, 24 h
Mycobacterium avium [36] = experiment: Antimycobacterial activity against Mycobacterium avium CNCTC My 330/88 after 21 days by micromethod; format: functional; settings: CNCTC My 330/88, 504 h
Klebsiella pneumoniae [37] = experiment: Antibacterial activity against Klebsiella pneumoniae HK11750/08 after 48 hrs by broth microdilution method; format: functional; settings: HK11750/08, 48 h
[38] = tested on: Staphylococcus epidermidis; experiment: Antibacterial activity against Staphylococcus epidermidis HK6996/08 after 48 hrs by broth microdilution method; format: functional; settings: HK6996/08, 48 h
[39] = tested on: Staphylococcus epidermidis; experiment: Antibacterial activity against Staphylococcus epidermidis HK6996/08 after 24 hrs by broth microdilution method; format: functional; settings: HK6996/08, 24 h
Mycobacterium kansasii [40] = experiment: Antimycobacterial activity against Mycobacterium kansasii 6509/96 clinical isolate after 14 days by micromethod; format: functional; settings: 6509/96, 336 h
Pichia kudriavzevii [41] = experiment: Antifungal activity against Candida krusei E28 after 48 hrs by broth microdilution method; format: functional; settings: E28, 48 h
[42] = Cytotoxicity against human HepG2 cells assessed as cell viability at 30 uM after 48 hrs by MTS assay relative to control; format: cell-based; settings: read-out: Activity
[43] = tested on: Mycobacterium tuberculosis; experiment: Antimycobacterial activity against Mycobacterium tuberculosis CNCTC My 331/88 after 14 days by micromethod; format: functional; settings: CNCTC My 331/88, 336 h
Aspergillus fumigatus [44] = experiment: Antifungal activity against Aspergillus fumigatus 231 after 24 hrs by broth microdilution method; format: functional; settings: Aspergillus fumigatus, 231, 24 h
Staphylococcus aureus [45] = experiment: Antibacterial activity against Staphylococcus aureus ATCC 6538 after 48 hrs by broth microdilution method; format: functional; settings: ATCC 6538, 48 h
[46] = Selectivity index, ratio of IC50 for human HepG2 cells to MIC for Mycobacterium tuberculosis; format: toxicity; settings: read-out: Selectivity Index
[47] = Cytotoxicity against human A431 cells assessed as cell viability at 30 uM after 48 hrs by MTS assay relative to control; format: cell-based, A-431; settings: read-out: Activity

O=[N+]([O-])c1cc(-c2nnc(SCc3ccccc3Cl)o2)cc([N+](=O)[O-])c1
129%: viability at 48 h, 30 µM [42]
> 500 µM: MIC (Klebsiella pneumoniae [1]) | MIC (Pichia kudriavzevii [2]) | MIC (Lichtheimia corymbifera [3]) | MIC [4] | MIC (Lichtheimia corymbifera [5]) | MIC [7] | MIC (Enterococcus sp. [8]) | MIC (Staphylococcus aureus [9]) | MIC (Escherichia coli [10]) | MIC (Escherichia coli [11]) | MIC (Enterococcus sp. [13]) | MIC (Trichosporon asahii [14]) | MIC (Candida albicans [15]) | MIC (Klebsiella pneumoniae [17]) | MIC (Candida tropicalis [18]) | MIC (Nakaseomyces glabratus [21]) | MIC (Trichosporon asahii [22]) | MIC (Klebsiella pneumoniae [23]) | MIC (Candida albicans [24]) | MIC (Pseudomonas aeruginosa [26]) | MIC (Staphylococcus aureus [27]) | MIC (Aspergillus fumigatus [28]) | MIC (Nakaseomyces glabratus [30]) | MIC (Candida tropicalis [31]) | MIC (Pseudomonas aeruginosa [33]) | MIC (Staphylococcus aureus [35]) | MIC (Klebsiella pneumoniae [37]) | MIC [38] | MIC [39] | MIC (Pichia kudriavzevii [41]) | MIC (Aspergillus fumigatus [44]) | MIC (Staphylococcus aureus [45])
> 30 µM: IC50 (A-431) | IC50 (HepG2) | IC50 (MDCK) | IC50 (Huh-7)
144%: viability at 48 h, 30 µM [6]
0.06 µM: MIC (Mycobacterium kansasii [16]) | MIC (Mycobacterium kansasii [19]) | MIC (Mycobacterium kansasii [40])
> 1000: selectivity ratio [46]
4 µM: MIC (Mycobacterium avium [32])
91%: viability at 48 h, 30 µM [47]
0.125 µM: MIC (Mycobacterium kansasii [12]) | MIC (Mycobacterium kansasii [25]) | MIC (Mycobacterium kansasii [29])
8 µM: MIC (Mycobacterium avium [36])
0.03 µM: MIC [34] | MIC [43]
115%: viability at 48 h, 30 µM [20]
